Tests used:
Format in all cases: cell-based
human β2-adrenoceptor = target: T1, human β2-adrenoceptor (Homo sapiens, UniProt P07550, E27Q/G16R); test: Measurement of agonistic activities on human β2-adrenoceptor (cAMP accumulation in transfected CHO cells); conditions: CHO cells expressing human β2-adrenoceptor; for EC50: cAMP, concentration giving 50% of the maximum reaction of isoproterenol, read-out: β2 receptor EC50; for Emax: maximum reaction relative to isoproterenol (100%), read-out: β2 receptor I.A. (intrinsic activity)
T1 construct: expressed in transfected cells; host or cells: CHO cells (transient transfection, Lipofectamine 2000)
T1 sequence (P07550 whole entry G16R/E27Q): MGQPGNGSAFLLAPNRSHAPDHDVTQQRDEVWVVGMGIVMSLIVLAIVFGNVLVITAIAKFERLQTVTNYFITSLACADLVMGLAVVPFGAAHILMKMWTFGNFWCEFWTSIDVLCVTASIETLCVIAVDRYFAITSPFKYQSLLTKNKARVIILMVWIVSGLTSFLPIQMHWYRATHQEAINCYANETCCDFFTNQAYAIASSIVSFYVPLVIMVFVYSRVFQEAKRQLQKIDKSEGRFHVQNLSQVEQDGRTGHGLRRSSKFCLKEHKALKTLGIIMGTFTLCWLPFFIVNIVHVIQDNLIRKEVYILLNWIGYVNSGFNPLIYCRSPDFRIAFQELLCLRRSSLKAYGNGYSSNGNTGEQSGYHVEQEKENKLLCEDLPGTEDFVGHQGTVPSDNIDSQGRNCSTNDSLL
Source text: (§1) Measurement of Agonistic Activities on Human β1- and β2-Adrenoceptors
The primer which added a restriction enzyme recognition region to 5′ end was designed on the basis of the base information that is registered with GenBank/EMBL data base as Accession No. M15169, and the clone was obtained by performance of PCR using human bladder origin cDNA as a template. The clone was inserted into pGEM-T vector and was amplified in Escherichia coli bacteria as a plasmid, and it was purified and the sequence of full length and around of insertion sequence determined by means of 310 Genetic Analyzer (ABI).
2) Preparation of Human β2-Adreoceptor Expressed Cells
(§2) The plasmid (80 ng) for expression obtained in the previous section was transfected into 5×10^4 CHO cells suspended in DMEM (Gibco-BRL: LIFE TECHNOLOGIES) containing 10% fetal bovine serum (Sanko Junyaku) by means of Lipofectoamine2000 (Invitrogen). These cells were dispensed in 96 well plate by 5×10^4 cells/100 μL per well and were cultured under an atmosphere of 5% CO2 at 37° C. for 24 hours, and were used for the assay.
(§3) 3. Measurement of Agonistic Activities on Human β1- and β2-Adrenoceptors
(§4) Test compounds were dissolved in 50% dimethyl sulfoxide to make a 10^−2 M solution. Then, a series of 1:10 dilutions containing a maximal dose of 2×10^−4 M were prepared using D-PBS (−) (Gibco-BRL: LIFE TECHNOLOGIES). The series were used for a testing sample to measure activity. The culture medium of CHO cells of previous section was removed and washed twice with 200 μL D-PBS (−) per well. After that, 50 μL of 3-isobutyl-1-methylxanthine (SIGMA, 1 mM) was added and leaved at rest for 5 minutes, and 50 μL of testing sample were added in them and they were incubated under an atomosphere of 5% CO2 at 37° C. for 30 minutes. cAMP concentrations accumulated in cells were reacted in cAMP-Screen (Applied Biosystems) and were detected by Microplate Luminometer TR717 (Applied Biosystems). The maximum reaction of isoproterenol, a positive contrast, was taken as a 100%, and the concentration of a test compound which gave reaction of the 50% was calculated as an EC50 value. In addition, the ratio of the maximum reaction of the test compound against the maximum reaction of isoproterenol was calculated as an intrinsic activity (I.A.).
(§5) (R)-3′-[[2-[[2-(3-chlorophenyl)-2-hydroxyethyl]aminoethoxy]-[1,1′-biphenyl]-3-carboxylic acid which was described in WO99/65877 was also examined as a comparison example.

human β3-adrenoceptor = target: T2, human β3-adrenoceptor (Homo sapiens, UniProt P13945); test: Measurement of agonistic activities on human β3-adrenoceptor (cAMP accumulation in SK-N-MC cells); conditions: for EC50: SK-N-MC cells with CGP-20712A, cAMP, concentration giving 50% of the maximum reaction of isoproterenol, read-out: β3 receptor EC50; for Emax: SK-N-MC cells, maximum reaction relative to maximum reaction of isoproterenol (100%), read-out: β3 receptor I.A. (intrinsic activity)
T2 construct: SK—N-MC cells (American Type Culture Collection, 1×10^5cell/mL) were put in 96 well plates; host or cells: SK-N-MC cells
T2 sequence (P13945 whole entry): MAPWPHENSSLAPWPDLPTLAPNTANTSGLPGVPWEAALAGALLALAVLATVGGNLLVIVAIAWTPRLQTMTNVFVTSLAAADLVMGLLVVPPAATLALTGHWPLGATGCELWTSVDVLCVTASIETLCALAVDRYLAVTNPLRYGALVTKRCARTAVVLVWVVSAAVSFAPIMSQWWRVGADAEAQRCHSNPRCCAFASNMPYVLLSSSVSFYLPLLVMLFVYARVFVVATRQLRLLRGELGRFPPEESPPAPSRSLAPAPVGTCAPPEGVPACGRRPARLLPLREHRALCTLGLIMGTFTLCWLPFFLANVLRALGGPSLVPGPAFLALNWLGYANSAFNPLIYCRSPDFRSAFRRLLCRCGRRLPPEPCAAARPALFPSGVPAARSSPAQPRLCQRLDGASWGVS
Description: Measurement of Agonistic Activities on Human β3-Adrenoceptor
Test compounds were dissolved in 50% dimethyl sulfoxide to make a 10^−2 M solution. Then, a series of 1:10 dilutions containing a maximal dose of 1×10^−4 M were prepared using D-PBS (−) (Gibco-BRL: LIFE TECHNOLOGIES). The series were used for a testing sample to measure activity. SK—N-MC cells (American Type Culture Collection, 1×10^5cell/mL) were put in 96 well plates by 100 μL and were cultured for about 24 hours. Forty μL of D-PBS and 20 μL of CGP-20712A (FUNAKOSHI, 3×10^−6 mol/L D-PBS solution) were added in them and incubated for 20 minutes. After that, 20 μL of 3-isobutyl-1-methylxanthine (SIGMA, 1×10^−2 mol/L D-PBS solution) and 20 μL of testing sample were added in them and they were incubated under an atmosphere of 5% CO2 at 37° C. for 30 minutes. cAMP concentrations accumulated in cells were reacted in cAMP-Screen (Applied Biosystems) and were detected by Microplate Luminometer TR717 (Applied Biosystems). The maximum reaction of isoproterenol, a positive contrast, was taken as a 100%, and the concentration of a test compound which gave reaction of the 50% was calculated as an EC50 value. In addition, the ratio of the maximum reaction of the test compound against the maximum reaction of isoproterenol was calculated as an intrinsic activity (I.A.). (R)-3′-[[2-[[2-(3-chlorophenyl)-2-hydroxyethyl]aminoethoxy]-[1,1′-biphenyl]-3-carboxylic acid which was described in WO99/65877 was also examined as a comparison example.

human β1-adrenoceptor = target: T3, human β1-adrenoceptor (Homo sapiens, UniProt P08588); test: Measurement of agonistic activities on human β1-adrenoceptor (cAMP accumulation in transfected CHO cells); conditions: CHO cells expressing human β1-adrenoceptor; for Emax: maximum reaction relative to isoproterenol (100%), read-out: β1 receptor I.A. (intrinsic activity); for EC50: cAMP, concentration giving 50% of the maximum reaction of isoproterenol, read-out: β1 receptor EC50
T3 construct: Both ends of a domain including full length of human β1-adrenoceptor were amplified; expressed in transfected cells; host or cells: CHO cells (transient transfection of pCI-neo plasmid, Lipofectamine 2000)
T3 sequence (P08588 whole entry): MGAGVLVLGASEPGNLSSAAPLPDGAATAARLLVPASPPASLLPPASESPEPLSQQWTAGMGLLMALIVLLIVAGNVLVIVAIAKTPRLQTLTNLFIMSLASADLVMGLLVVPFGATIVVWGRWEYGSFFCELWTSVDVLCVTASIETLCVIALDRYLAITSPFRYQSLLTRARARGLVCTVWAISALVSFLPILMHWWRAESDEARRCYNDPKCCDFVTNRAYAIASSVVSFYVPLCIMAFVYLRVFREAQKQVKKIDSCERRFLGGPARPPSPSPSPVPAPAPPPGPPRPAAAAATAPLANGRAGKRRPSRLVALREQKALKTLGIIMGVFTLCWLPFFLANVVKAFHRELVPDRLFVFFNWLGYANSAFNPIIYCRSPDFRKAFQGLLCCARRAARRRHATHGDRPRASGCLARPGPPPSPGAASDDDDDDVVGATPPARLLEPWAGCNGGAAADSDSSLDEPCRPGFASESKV
Source text: as §1
Both ends of a domain including full length of human β1-adrenoceptor were amplified on the basis of DNA base information that is registered with GenBank/EMBL data base as Accession No. J03019. DNA fragment which was amplified was inserted into a vector for cloning and amplified in Escherichia coli bacteria. The plasmid which was cloned was inserted into a vector pCI-neo (Promega) for protein expression and plasmid DNA was extracted and purified, then it was used for a preparation of the following expression cells.
1) Preparation of Human β1-Adrenoceptor Expressed Cells
as §2, with “(320” for “(80”, “expression which was” for “expression”
as §3, §4, §5

| Structure (SMILES) | EC50 (human β2-adrenoceptor) [nM] | Emax (human β2-adrenoceptor) [%] | EC50 (human β3-adrenoceptor) [nM] | Emax (human β3-adrenoceptor) [%] | Emax (human β1-adrenoceptor) [%] | EC50 (human β1-adrenoceptor) [nM] |
| --- | --- | --- | --- | --- | --- | --- |
| Cc1cc(-c2ccc(OCC(=O)O)cc2)cc(C)c1OCCN[C@@H](C)[C@H](O)c1ccc(O)c(NS(C)(=O)=O)c1 [Compound 9, (4′-{2-[(1S,2R)-2-Hydroxy-2-(4-hydroxy-3-methanesulfonylaminophenyl)-1-methylethylamino]ethoxy}-3′,5′-dimethylbiphenyl-4-yloxy)acetic acid] | 200 | 60 | 14.2 | 222 | 49 |  |
| CS(=O)(=O)Nc1cc([C@@H](O)CNCCOc2ccc(-c3ccc(C(=O)O)c(C(=O)O)c3)cc2)ccc1O [Compound 21, 4′-{2-[(R)-2-Hydroxy-2-(4-hydroxy-3-methanesulfonylaminophenyl)ethylamino]ethoxy}biphenyl-3,4-dicarboxylic acid] | 4490 | 61 | 57.1 | 154 | 86 | 9330 |
| CCOc1cc(-c2ccc(OCCNC[C@H](O)c3ccc(O)c(NS(C)(=O)=O)c3)cc2)ccc1C(=O)O [Compound 28, 3-Ethoxy-4′-{2-[(R)-2-hydroxy-2-(4-hydroxy-3-methanesulfonylaminophenyl)ethylamino]ethoxy}biphenyl-4-carboxylic acid] |  | 27 | 19.3 | 112 | 85 | 1670 |
| O=C(O)c1cccc(-c2cccc(OCCNC[C@H](O)c3cccc(Cl)c3)c2)c1 [comparison, reference compound] |  | 15 |  | 27 | 60 | 742 |

Reference: patent publication US7417169B2, “Amino alcohol derivatives, medicinal composition containing the same, and use of these” (Kissei Pharmaceutical Co., Ltd., priority 2003, dated 2008)
